Data published in patent publication US20070149465A1, “COMPOSITIONS AND METHODS FOR PREVENTION AND TREATMENT OF CACHEXIA” (priority 2005, published 2007).
In brackets after ≈: the same amount, converted by molar mass.

What was measured:
Format in all cases: physicochemical
[1] = Solution osmolality of roxithromycin citrate solutions; settings: 25° C.
Description: (§1) The solutions were syringe-filtered and analyzed by HPLC for [roxithromycin]. Roxithromycin Potency was assayed by a reverse-phase HPLC method that meets the requirements of the European Pharmacopeia (EP) Monograph for roxithromycin. Solution pH values were determined per USP <791> and solution osmolality values were determined per USP <785>. Aqueous solubility limits were determined for roxithromycin as a function of buffer type (phosphate versus citrate), buffer concentration, pH, and added co-solvent (ethanol).

[2] = Aqueous solubility of roxithromycin (pH, buffer, ethanol); settings: 25 °C, thermodynamic from solid
Description: as §1

[3] = Stability of formoterol fumarate and roxithromycin co-formulated in oral solution; settings: co-formulated 0.005 mg/mL formoterol fumarate + 2.0 mg/mL roxithromycin, pH 6.0, 20 mM citrate, 4.5% mannitol, 0.1% potassium sorbate
Description: Roxithromycin Potency was assayed by a reverse-phase HPLC method that meets the requirements of the European Pharmacopeia (EP) Monograph for roxithromycin.

For `CC[C@H]1OC(=O)[C@H](C)[C@@H](O[C@H]2C[C@@](C)(OC)[C@@H](O)[C@H](C)O2)[C@H](C)[C@@H](O[C@@H]2O[C@H](C)C[C@H](N(C)C)[C@H]2O)[C@](C)(O)C[C@@H](C)/C(=N\OCOCCOC)[C@H](C)[C@@H](O)[C@]1(C)O` [roxithromycin], the “Solution Osmolaltiy” value ([1]; 20 mM citrate, pH 4) was 43 mOsm/kG, the “Solution Osmolaltiy” value ([1]; 20 mM citrate, pH 5) was 47 mOsm/kG and the “Solution Osmolaltiy” value ([1]; 20 mM citrate, pH 6) was 57 mOsm/kG. The “Solution Osmolaltiy” value ([1]; 20 mM citrate, pH 7) was 60 mOsm/kG, the “Solution Osmolaltiy” value ([1]; 50 mM citrate, pH 4) was 110 mOsm/kG and the “Solution Osmolaltiy” value ([1]; 50 mM citrate, pH 5) was 124 mOsm/kG. The “Solution Osmolaltiy” value ([1]; 50 mM citrate, pH 6) was 139 mOsm/kG, the “Solution Osmolaltiy” value ([1]; 50 mM citrate, pH 7) was 138 mOsm/kG and the “Solution Osmolaltiy” value ([1]; 100 mM citrate, pH 4) was 203 mOsm/kG. For the same molecule, the “Solution Osmolaltiy” value ([1]; 100 mM citrate, pH 5) was 243 mOsm/kG, the “Solution Osmolaltiy” value ([1]; 100 mM citrate, pH 6) was 260 mOsm/kG and the “Solution Osmolaltiy” value ([1]; 100 mM citrate, pH 7) was 271 mOsm/kG. The “Solution Osmolaltiy” value ([1]; 200 mM citrate, pH 4) was 366 mOsm/kG, the “Solution Osmolaltiy” value ([1]; 200 mM citrate, pH 5) was 462 mOsm/kG and the “Solution Osmolaltiy” value ([1]; 200 mM citrate, pH 6) was 521 mOsm/kG. For the same molecule, the “Solution Osmolaltiy” value ([1]; 200 mM citrate, pH 7) was 532 mOsm/kG, the solubility at 24 h ([2]; citrate buffer, pH 4, aqueous buffer, 20 mM citrate, pH 4) was 4130 µg/mL (≈ 4.93 mM) and the solubility at 24 h ([2]; citrate buffer, pH 4, aqueous buffer, 50 mM citrate, pH 4) was 4610 µg/mL (≈ 5.51 mM). The solubility at 24 h ([2]; citrate buffer, pH 4, aqueous buffer, 100 mM citrate, pH 4) was 1890 µg/mL (≈ 2.26 mM), the solubility at 24 h ([2]; citrate buffer, pH 4, aqueous buffer, 200 mM citrate, pH 4) was 2740 µg/mL (≈ 3.27 mM) and the solubility at 24 h ([2]; citrate buffer, pH 5, aqueous buffer, 20 mM citrate, pH 5) was 3540 µg/mL (≈ 4.23 mM). The solubility at 24 h ([2]; citrate buffer, pH 5, aqueous buffer, 50 mM citrate, pH 5) was 3570 µg/mL (≈ 4.26 mM), the solubility at 24 h ([2]; citrate buffer, pH 5, aqueous buffer, 100 mM citrate, pH 5) was 2770 µg/mL (≈ 3.31 mM) and the solubility at 24 h ([2]; citrate buffer, pH 5, aqueous buffer, 200 mM citrate, pH 5) was 1900 µg/mL (≈ 2.27 mM). The solubility at 24 h ([2]; citrate buffer, pH 6, aqueous buffer, 20 mM citrate, pH 6) was 2450 µg/mL (≈ 2.93 mM), the solubility at 24 h ([2]; citrate buffer, pH 6, aqueous buffer, 50 mM citrate, pH 6) was 2760 µg/mL (≈ 3.3 mM) and the solubility at 24 h ([2]; citrate buffer, pH 6, aqueous buffer, 100 mM citrate, pH 6) was 2300 µg/mL (≈ 2.75 mM). For the same molecule, the solubility at 24 h ([2]; citrate buffer, pH 6, aqueous buffer, 200 mM citrate, pH 6) was 1720 µg/mL (≈ 2.05 mM), the solubility at 24 h ([2]; citrate buffer, pH 7, aqueous buffer, 20 mM citrate, pH 7) was 500 µg/mL (≈ 0.597 mM) and the solubility at 24 h ([2]; citrate buffer, pH 7, aqueous buffer, 50 mM citrate, pH 7) was 980 µg/mL (≈ 1.17 mM). For the same molecule, the solubility at 24 h ([2]; citrate buffer, pH 7, aqueous buffer, 100 mM citrate, pH 7) was 1230 µg/mL (≈ 1.47 mM), the solubility at 24 h ([2]; citrate buffer, pH 7, aqueous buffer, 200 mM citrate, pH 7) was 1250 µg/mL (≈ 1.49 mM) and the solubility at 24 h ([2]; phosphate buffer with ethanol co-solvent, pH 5, aqueous with cosolvent or surfactant or cyclodextrin, pH 5, 10 mM phosphate, 5% ethanol) was 3500 µg/mL (≈ 4.18 mM). The solubility at 24 h ([2]; phosphate buffer with ethanol co-solvent, pH 5, aqueous with cosolvent or surfactant or cyclodextrin, pH 5, 10 mM phosphate, 10% ethanol) was 3800 µg/mL (≈ 4.54 mM), the solubility at 24 h ([2]; phosphate buffer with ethanol co-solvent, pH 5, aqueous with cosolvent or surfactant or cyclodextrin, pH 5, 20 mM phosphate, 5% ethanol) was 5500 µg/mL (≈ 6.57 mM) and the solubility at 24 h ([2]; phosphate buffer with ethanol co-solvent, pH 5, aqueous with cosolvent or surfactant or cyclodextrin, pH 5, 20 mM phosphate, 10% ethanol) was 6000 µg/mL (≈ 7.17 mM). It also gave a solubility at 24 h ([2]; phosphate buffer with ethanol co-solvent, pH 5, aqueous with cosolvent or surfactant or cyclodextrin, pH 5, 50 mM phosphate, 5% ethanol) of 8300 µg/mL (≈ 9.92 mM), a solubility at 24 h ([2]; phosphate buffer with ethanol co-solvent, pH 5, aqueous with cosolvent or surfactant or cyclodextrin, pH 5, 50 mM phosphate, 10% ethanol) of 9200 µg/mL (≈ 11 mM) and a solubility at 24 h ([2]; phosphate buffer with ethanol co-solvent, pH 6, aqueous with cosolvent or surfactant or cyclodextrin, pH 6, 10 mM phosphate, 5% ethanol) of 4100 µg/mL (≈ 4.9 mM). For the same molecule, the solubility at 24 h ([2]; phosphate buffer with ethanol co-solvent, pH 6, aqueous with cosolvent or surfactant or cyclodextrin, pH 6, 10 mM phosphate, 10% ethanol) was 3900 µg/mL (≈ 4.66 mM), the solubility at 24 h ([2]; phosphate buffer with ethanol co-solvent, pH 6, aqueous with cosolvent or surfactant or cyclodextrin, pH 6, 20 mM phosphate, 5% ethanol) was 4600 µg/mL (≈ 5.5 mM) and the solubility at 24 h ([2]; phosphate buffer with ethanol co-solvent, pH 6, aqueous with cosolvent or surfactant or cyclodextrin, pH 6, 20 mM phosphate, 10% ethanol) was 5000 µg/mL (≈ 5.97 mM). It also gave a solubility at 24 h ([2]; phosphate buffer with ethanol co-solvent, pH 6, aqueous with cosolvent or surfactant or cyclodextrin, pH 6, 50 mM phosphate, 5% ethanol) of 8100 µg/mL (≈ 9.68 mM), a solubility at 24 h ([2]; phosphate buffer with ethanol co-solvent, pH 6, aqueous with cosolvent or surfactant or cyclodextrin, pH 6, 50 mM phosphate, 10% ethanol) of 9300 µg/mL (≈ 11.1 mM) and a solubility at 24 h ([2]; phosphate buffer with ethanol co-solvent, pH 7, aqueous with cosolvent or surfactant or cyclodextrin, pH 7, 10 mM phosphate, 5% ethanol) of 1800 µg/mL (≈ 2.15 mM). The solubility at 24 h ([2]; phosphate buffer with ethanol co-solvent, pH 7, aqueous with cosolvent or surfactant or cyclodextrin, pH 7, 10 mM phosphate, 10% ethanol) was 1700 µg/mL (≈ 2.03 mM), the solubility at 24 h ([2]; phosphate buffer with ethanol co-solvent, pH 7, aqueous with cosolvent or surfactant or cyclodextrin, pH 7, 20 mM phosphate, 5% ethanol) was 1700 µg/mL (≈ 2.03 mM) and the solubility at 24 h ([2]; phosphate buffer with ethanol co-solvent, pH 7, aqueous with cosolvent or surfactant or cyclodextrin, pH 7, 20 mM phosphate, 10% ethanol) was 2100 µg/mL (≈ 2.51 mM). For the same molecule, the solubility at 24 h ([2]; phosphate buffer with ethanol co-solvent, pH 7, aqueous with cosolvent or surfactant or cyclodextrin, pH 7, 50 mM phosphate, 5% ethanol) was 2300 µg/mL (≈ 2.75 mM), the solubility at 24 h ([2]; phosphate buffer with ethanol co-solvent, pH 7, aqueous with cosolvent or surfactant or cyclodextrin, pH 7, 50 mM phosphate, 10% ethanol) was 3100 µg/mL (≈ 3.7 mM) and the solubility at 24 h ([2]; phosphate buffer, pH 5, aqueous buffer, pH 5, 10 mM phosphate, 0% ethanol) was 3200 µg/mL (≈ 3.82 mM). For the same molecule, the solubility at 24 h ([2]; phosphate buffer, pH 5, aqueous buffer, pH 5, 20 mM phosphate, 0% ethanol) was 5200 µg/mL (≈ 6.21 mM), the solubility at 24 h ([2]; phosphate buffer, pH 5, aqueous buffer, pH 5, 50 mM phosphate, 0% ethanol) was 7200 µg/mL (≈ 8.6 mM) and the solubility at 24 h ([2]; phosphate buffer, pH 6, aqueous buffer, pH 6, 10 mM phosphate, 0% ethanol) was 2800 µg/mL (≈ 3.35 mM). It also gave a solubility at 24 h ([2]; phosphate buffer, pH 6, aqueous buffer, pH 6, 20 mM phosphate, 0% ethanol) of 4200 µg/mL (≈ 5.02 mM), a solubility at 24 h ([2]; phosphate buffer, pH 6, aqueous buffer, pH 6, 50 mM phosphate, 0% ethanol) of 6700 µg/mL (≈ 8 mM) and a solubility at 24 h ([2]; phosphate buffer, pH 7, aqueous buffer, pH 7, 10 mM phosphate, 0% ethanol) of 1400 µg/mL (≈ 1.67 mM). For the same molecule, the solubility at 24 h ([2]; phosphate buffer, pH 7, aqueous buffer, pH 7, 20 mM phosphate, 0% ethanol) was 1300 µg/mL (≈ 1.55 mM), the solubility at 24 h ([2]; phosphate buffer, pH 7, aqueous buffer, pH 7, 50 mM phosphate, 0% ethanol) was 2000 µg/mL (≈ 2.39 mM) and the “Roxithromycin Potency” value ([3]; week 0, 5 ° C.) was 1920 µg/mL. The “Roxithromycin Potency” value ([3]; week 0, 25 ° C.) was 1920 µg/mL, the “Roxithromycin Potency” value ([3]; week 0, 40 ° C.) was 1920 µg/mL and the “Roxithromycin Potency” value ([3]; week 2, 25 ° C.) was 1740 µg/mL. For the same molecule, the “Roxithromycin Potency” value ([3]; week 2, 40 ° C.) was 1610 µg/mL, the “Roxithromycin Potency” value ([3]; week 4, 5 ° C.) was 1920 µg/mL and the “Roxithromycin Potency” value ([3]; week 4, 25 ° C.) was 1710 µg/mL. The “Roxithromycin Potency” value ([3]; week 4, 40 ° C.) was 1470 µg/mL.
